Laboratory results as given in article PMC7816042, “Insights into the Structure-Activity Relationship of Glycosides as Positive Allosteric Modulators Acting on P2X7 Receptors” (Molecular Pharmacology, 2021).

How the values were obtained:
[1] = target: T1, human P2X7 (Homo sapiens, UniProt Q99572); test: YO-PRO-1 dye uptake assay in HEK-hP2X7 cells; assay type: cell-based; settings: for Effect of AZ10606120 pretreatment on response to ATP + glycoside (P2X7 dependence): 10 µM AZ10606120 pretreatment; for PAM effect on ATP dose-response curve: result in words
T1 construct: expressed in transfected cells
T1 sequence (Q99572 1-595): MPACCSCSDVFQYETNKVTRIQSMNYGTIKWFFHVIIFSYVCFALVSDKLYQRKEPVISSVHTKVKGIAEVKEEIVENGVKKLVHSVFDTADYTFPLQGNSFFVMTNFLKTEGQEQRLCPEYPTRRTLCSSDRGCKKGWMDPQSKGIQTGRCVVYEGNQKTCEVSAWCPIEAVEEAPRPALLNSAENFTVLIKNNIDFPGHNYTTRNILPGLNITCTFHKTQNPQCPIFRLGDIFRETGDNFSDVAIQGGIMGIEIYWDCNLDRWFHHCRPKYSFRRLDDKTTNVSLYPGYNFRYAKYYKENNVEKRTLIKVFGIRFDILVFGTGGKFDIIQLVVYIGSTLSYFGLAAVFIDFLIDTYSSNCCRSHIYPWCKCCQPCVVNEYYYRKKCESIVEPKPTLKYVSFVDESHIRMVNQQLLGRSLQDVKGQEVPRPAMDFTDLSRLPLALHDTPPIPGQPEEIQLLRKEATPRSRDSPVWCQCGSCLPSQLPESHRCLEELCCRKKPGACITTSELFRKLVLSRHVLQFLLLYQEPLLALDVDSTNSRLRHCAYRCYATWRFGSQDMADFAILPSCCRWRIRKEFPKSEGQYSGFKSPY

[2] = tested on: THP-1 cells; test: Cell viability assay (resazurin/Alamar blue) in THP-1 cells; assay type: cell-based, human; settings: 500 µM ATP
Method: (§1) HEK-hP2X7 or THP-1 cells were seeded at 5 × 10^3 cells per well in a volume of 100 μl for 24 hours in 96-well plates (Nunclon Edge plates, catalog number 167425; Thermo Scientific). Cells were plated in DMEM:F12 medium or RPMI 1640 medium containing 1% FBS and penicillin/streptomycin for 24 hours in a humidified incubator at 37°C with a constant supply of 5% CO2. Edge wells of the plates were filled with autoclaved distilled water to prevent evaporation of media from wells containing cells. The compounds and ATP were made at 2× final concentration in 1% FBS DMEM:F12 and 100 μl added to the cells for 24 hours. After incubation, resazurin sodium salt (CAS 62758-13-8; Sigma Aldrich) at 0.1 mg/ml in sterile PBS was added to the plate (20 into 200 µl culture medium per well). Cells were incubated for a further 2 hours in a humidified incubator at 37°C with a supply of 5% CO2. A Flexstation 3 microplate reader was used to acquire data. Endpoint fluorescence data were measured using 570 nm excitation wavelength, 600 nm emission wavelength (cutoff at 590 nm), and three reads per well (PMT low). Data were analyzed by performing background correction through subtracting blank medium readings (without cells) from all samples and then normalizing each sample to medium treated cells (control treatment, 100%) as percentage of control.
Results are expressed as means ± S.D. from the indicated number of experiments. For YO-PRO-1 dye uptake and intracellular calcium experiments, each independent experiment used triplicate wells, and the means of the replicates were collated and plotted. Technical replicates were used to ensure reliability of fluorescence values. Cell viability data were normalized to the vehicle control for each experiment after background correction had been performed. […] These values were calculated from the collated data for each compound from three independent experiments. Statistical differences were determined by analysis of the data by one-way ANOVA followed by Dunnett’s multiple comparison test or Sidak’s multiple comparison test using GraphPad Prism version 7. […]

[3] = target: T1, human P2X7; design: method as in Helliwell et al., 2015; settings: ref Helliwell et al., 2015; cited from earlier work
[4] = tested on: nontransfected HEK-293 cells; test: YO-PRO-1 dye uptake in parental nontransfected HEK-293 cells; assay type: cell-based, human; settings: drug alone
[5] = target: T2, endogenous P2X7 in THP-1 cells (Homo sapiens, UniProt Q99572); test: Fura-2 calcium measurements in THP-1 monocytes; assay type: cell-based; settings: 500 µM ATP co-applied with 10 µM glycoside
T2 sequence (Q99572 1-394 limits assumed): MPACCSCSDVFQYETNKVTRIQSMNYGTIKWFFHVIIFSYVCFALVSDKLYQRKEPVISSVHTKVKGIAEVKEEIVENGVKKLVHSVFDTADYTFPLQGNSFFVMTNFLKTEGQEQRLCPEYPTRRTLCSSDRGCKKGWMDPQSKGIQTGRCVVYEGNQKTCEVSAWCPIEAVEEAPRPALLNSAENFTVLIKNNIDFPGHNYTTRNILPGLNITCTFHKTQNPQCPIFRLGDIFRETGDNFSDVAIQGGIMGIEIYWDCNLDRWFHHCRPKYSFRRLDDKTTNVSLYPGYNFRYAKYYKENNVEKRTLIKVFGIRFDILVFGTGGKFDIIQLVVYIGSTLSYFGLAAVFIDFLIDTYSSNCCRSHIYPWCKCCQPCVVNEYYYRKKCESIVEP
Method: THP-1 cells were pelleted by centrifugation (300g, 5 minute), washed, and resuspended in Hanks’ balanced salt solution buffer containing 2 μM fura-2 AM (HelloBio) and 250 μM (±)-sulfinpyrazone. Cells were loaded for 1 hour in a waterbath at 37°C while shielded from light with foil. Loaded cells were washed once with 5 ml Hanks’ balanced salt solution to remove excess fura-2 AM dye. THP-1 cells were then resuspended, counted, and plated at 2 × 10^5 cells per well in a standard clear 96-well plate (NUNC 167008; Thermo Scientific) in low divalent assay buffer without Mg^2+ (145 mM NaCl, 2 mM KCl and 2 mM CaCl2, 13 mM glucose, 10 mM HEPES, pH 7.3) containing 250 μM (±)-sulfinpyrazone. The 10× concentration of agonist (ATP) was prepared in the same assay buffer. ATP was injected automatically into wells at 30 seconds in a Flexstation 3 microplate reader. Ratiometric data were acquired using 340 and 380 nm for excitation wavelengths, 520 nm as the emission wavelength, and six reads per well (PMT medium). Area under the curve was calculated using standard zero baseline normalization with a lag time 0–300 seconds using SoftMax Pro version 5.4 software.
Results are expressed as means ± S.D. from the indicated number of experiments. For YO-PRO-1 dye uptake and intracellular calcium experiments, each independent experiment used triplicate wells, and the means of the replicates were collated and plotted. Technical replicates were used to ensure reliability of fluorescence values. […] Dose-response curves were plotted by a nonlinear regression fit with variable slope using GraphPad Prism software version 7. Half-maximal responses are expressed as EC50 values with 95% confidence intervals. These values were calculated from the collated data for each compound from three independent experiments. Statistical differences were determined by analysis of the data by one-way ANOVA followed by Dunnett’s multiple comparison test or Sidak’s multiple comparison test using GraphPad Prism version 7. P < 0.05 was the accepted minimum level of significance.

[6] = tested on: HEK-hP2X7 cells; test: Cell viability assay (resazurin/Alamar blue) in HEK-hP2X7 cells; assay type: cell-based, human; settings: 24 hours
Method: as §1
Results are expressed as means ± S.D. from the indicated number of experiments. For YO-PRO-1 dye uptake and intracellular calcium experiments, each independent experiment used triplicate wells, and the means of the replicates were collated and plotted. Technical replicates were used to ensure reliability of fluorescence values. Cell viability data were normalized to the vehicle control for each experiment after background correction had been performed. Dose-response curves were plotted by a nonlinear regression fit with variable slope using GraphPad Prism software version 7. Half-maximal responses are expressed as EC50 values with 95% confidence intervals. These values were calculated from the collated data for each compound from three independent experiments. Statistical differences were determined by analysis of the data by one-way ANOVA followed by Dunnett’s multiple comparison test or Sidak’s multiple comparison test using GraphPad Prism version 7. P < 0.05 was the accepted minimum level of significance.

Nc1ncnc2c1ncn2[C@@H]1O[C@H](COP(=O)(O)OP(=O)(O)OP(=O)(O)O)[C@@H](O)[C@H]1O [ATP, reference compound]
EC50 ([1]; average, n = 5 experiments, HEK-hP2X7, read-out: EC50 for ATP + vehicle (DMSO)): 219 µM
Cell viability after ATP ([2]; 24 hours): 73.3% ± 14.4%

CC(C)=CCC[C@](C)(O)[C@H]1CC[C@]2(C)[C@@H]1[C@H](O)C[C@@H]1[C@@]3(C)CC[C@H](O[C@@H]4O[C@H](CO)[C@@H](O)[C@H](O)[C@H]4O)C(C)(C)[C@@H]3CC[C@]12C [ginsenoside-Rh2]
PAM activity at human P2X7 [3]: able to potentiate hP2X7 responses

C[C@H]1O[C@@H](O[C@H]2CC[C@@]3(C)[C@@H](CC[C@]4(C)[C@@H]3C=C[C@]35OC[C@@]6(CCC(C)(C)C[C@H]63)[C@@H](O)C[C@]54C)[C@]2(C)CO)[C@H](O)[C@@H](O[C@@H]2O[C@H](CO)[C@@H](O)[C@H](O)[C@H]2O)[C@H]1O [Saikosaponin A, saikosaponin A]
Effect of AZ10606120 pretreatment on response to ATP + glycoside (P2X7 dependence) [1]: unaffected by AZ10606120 pretreatment
ATP-induced YO-PRO-1 response in fixed-concentration screen ([1]; 200 µM ATP, 10 µM glycoside, compared with ATP + DMSO): large increase
Toxic effect on cells ([1]; YO-PRO-1 uptake without ATP or without P2X7): toxic effect on the cells
YO-PRO-1 uptake in HEK-hP2X7 cells in the absence of ATP ([1]; drug alone): could induce YO-PRO-1 uptake
YO-PRO-1 uptake in nontransfected HEK-293 cells (no P2X7) [4]: could induce YO-PRO-1 uptake

CC(C)=CCCC(C)(OC1OC(CO)C(O)C(O)C1O)C1CCC2(C)C1C(O)CC1C3(C)CCC(O)C(C)(C)C3CCC12C (stereo not shown) [Ginsenoside-CK]
Effect of AZ10606120 pretreatment on response to ATP + glycoside (P2X7 dependence) [1]: abolished
PAM effect on ATP dose-response curve ([1]; 10 µM glycoside, HEK-hP2X7): mixed type I/II effects
Maximum response (fold increase) ([1]; maximum response defined at 1 mM ATP, 10 µM glycoside): 2.4–4.4 fold
Effect on ATP-induced calcium response [5]: increased the peak response and the sustained elevation in [Ca^2+]i
Cell viability in combination with ATP [6]: very effective at enhancing cell death
Enhancement of ATP-induced cell death ([2]; 24 hours): could significantly enhance this ATP-induced cell death
PAM activity at human P2X7 [3]: highest activity

Cl.Cl.O=C(CC12CC3CC(CC(C3)C1)C2)Nc1cccc2nc(NCCNCCO)ccc12 [AZ10606120, reference compound]
Antagonist effect on loss of viability by ATP + ginsenoside-F2 or 20(S)-Rg3 ([6]; AZ10606120 pretreatment): prevented
Antagonist effect on ATP-induced loss of viability [2]: lack of effect

CC(C)=CCC[C@](C)(O)[C@H]1CC[C@]2(C)[C@@H]1[C@H](O)C[C@@H]1[C@@]3(C)CC[C@H](O)C(C)(C)[C@@H]3CC[C@]12C [PPD, protopanaxadiol]
PAM effect on ATP dose-response curve ([1]; 10 µM glycoside, HEK-hP2X7): no effect on the ATP dose-response curve
PAM activity at human P2X7 [3]: no activity
